{
  "source": "patent US20230339970A1",
  "about": "“CASEIN KINASE 1 DELTA MODULATORS” (priority 2020, published 2023)",
  "key": {"[1]": {"molecular_target": "T1, human recombinant GST cleaved CSNK1D (Homo sapiens, UniProt P48730)", "T1 construct": "GST (cleaved yes); purchased University of Dundee clone DU 19064", "T1 sequence (P48730 whole entry)": "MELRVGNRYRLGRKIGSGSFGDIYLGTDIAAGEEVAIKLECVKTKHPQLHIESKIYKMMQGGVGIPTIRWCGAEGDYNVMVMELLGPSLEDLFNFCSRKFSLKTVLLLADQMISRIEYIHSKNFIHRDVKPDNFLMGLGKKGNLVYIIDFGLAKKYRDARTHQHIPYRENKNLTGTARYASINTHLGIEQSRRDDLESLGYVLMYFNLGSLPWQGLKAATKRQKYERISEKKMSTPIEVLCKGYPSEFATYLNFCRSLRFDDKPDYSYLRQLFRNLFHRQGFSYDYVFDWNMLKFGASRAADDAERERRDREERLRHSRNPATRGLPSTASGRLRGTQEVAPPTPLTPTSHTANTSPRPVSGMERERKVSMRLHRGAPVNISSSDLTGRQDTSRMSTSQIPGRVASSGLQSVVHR", "experiment": "Purified Enzyme Assay (ADP-Glo CSNK1D Kinase Assay)", "format": "biochemical", "settings": "2 nM CSNK1D; peptide substrate 150 μM; ATP 20 μM; 45 minutes at room temperature", "method_in_brief": "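Percent activity derived from ADP-Glo quantification of ADP produced. Reactions: compound dose-response with human recombinant GST-cleaved CSNK1D, ATP and substrate peptide PLSRTL-pS-VASLPGL, incubated 45 min at room temperature.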"}, "human CSNK1D": {"molecular_target": "T2, human CSNK1D (Homo sapiens, UniProt P48730)", "T2 construct": "expressed in transfected cells", "T2 sequence (P48730 whole entry)": "as above", "experiment": "Whole Cell nBRET CSNK1D Binding Assay", "settings": "living CHO cells stably expressing human CSNK1D tagged with nanoluciferase; NanoBret tracer 130 nM; 2 hours at 37 C"}, "circadian rhythms [2]": {"system": "circadian rhythms", "settings": "cellular reporter assays; cited from earlier work"}, "[3]": {"settings": "including conditioned place preference with cocaine and alcohol reinstatement; cited from earlier work"}, "circadian rhythms [4]": {"system": "circadian rhythms", "settings": "in vivo locomotor activity of a variety of species; cited from earlier work"}, "[5]": {"settings": "ob/ob and diet-induced obese mouse, daily administration; cited from earlier work"}},
  "note": "Like-named read-outs stand apart in the source and are kept apart here.",
  "data": [
    {"compound": "Fc1ccc(-c2nn3c(c2-c2c(F)cnc4[nH]ncc24)OCC2(C3)CC2(F)F)cc1", "note": "(stereo not shown) [Example 471, 2,2-Difluoro-3′-(5-fluoro-1H-pyrazolo[3,4-b]pyridin-4-yl)-2′-(4-fluorophenyl)-5′H,7′H-spiro[cyclopropane-1,6′-pyrazolo[5,1-b][1,3]oxazine]]", "values": [
      {"measurement": "IC50", "setting": "[1]", "result": 2, "unit": "nM"},
      {"measurement": "IC50", "setting": "human CSNK1D", "result": 3, "unit": "nM"}
    ]},
    {"compound": "CC1(O)COCc2c(-c3ccnc4[nH]ncc34)c(-c3ccc(F)cn3)nn2C1", "note": "(stereo not shown) [Example 484, 2-(5-Fluoropyridin-2-yl)-7-methyl-3-(1H-pyrazolo[3,4-b]pyridin-4-yl)-7,8-dihydro-4H,6H-pyrazolo[5,1-c][1,4]oxazepin-7-ol]", "values": [
      {"measurement": "IC50", "setting": "[1]", "result": 231, "unit": "nM"},
      {"measurement": "IC50", "setting": "human CSNK1D", "result": "> 10000", "unit": "nM"}
    ]},
    {"compound": "Nc1nccc(-c2c(-c3ccc(F)cc3)ncn2C2CCCCC2)n1", "note": "[PF-670462]", "values": [
      {"measurement": "effect on circadian rhythms", "setting": "circadian rhythms [2]", "result": "significantly lengthened circadian rhythms"},
      {"measurement": "efficacy in addiction/substance abuse models", "setting": "[3]", "result": "shown efficacy"},
      {"measurement": "effect on circadian rhythms", "setting": "circadian rhythms [4]", "result": "significantly lengthened circadian rhythms"}
    ]},
    {"compound": "Nc1nccc(-c2c(-c3ccc(F)cc3)ncn2C2CCN(Cc3ccon3)CC2)n1", "note": "[PF-5006739]", "values": [
      {"measurement": "effect on circadian rhythms", "setting": "circadian rhythms [2]", "result": "significantly lengthened circadian rhythms"},
      {"measurement": "glucose tolerance", "setting": "[5]", "result": "improve glucose tolerance"},
      {"measurement": "effect on circadian rhythms", "setting": "circadian rhythms [4]", "result": "significantly lengthened circadian rhythms"}
    ]}
  ]
}
